Values quoted from earlier work, collected in patent US20140037729A1, “COMBINATION OF AN OPIOID AGONIST AND AN OPIOID ANTAGONIST IN THE TREATMENT OF PARKINSON'S DISEASE” (Euro-Celtique, S.A., priority 2010, published 2014).

Experiments:
[1] = reported
[2] = system: parkinsonian patients; settings: at higher doses; Berg et al. 1999
[3] = system: parkinsonian monkeys; settings: in the long term; Samadi et al. 2005

C=CCN1CC[C@]23c4c5ccc(O)c4O[C@H]2C(=O)CC[C@@]3(O)[C@H]1C5 [Naloxone, naloxone]
oral bioavailability [1]: ≤ 2%

CN1CC[C@]23c4c5ccc(O)c4O[C@H]2[C@@H](O)C=C[C@H]3[C@H]1C5 [morphine]
akinesia [2]: increase in akinesia

O=C1CC[C@@]2(O)[C@H]3Cc4ccc(O)c5c4[C@@]2(CCN3CC2CC2)[C@H]1O5 [naltrexone]
dyskinesias [3]: increases dyskinesias
